Data published in patent US12534429B2, “Heterodimers of glutamic acid” (Molecular Insight Pharmaceuticals, Inc., priority 2006, dated 2026).
pIC50, pKd: −log10 of the molar value. Where two headings read alike, the source gives them in different places. One block for each compound: values may come before it.

Tests used:
LnCap cells = experiment: Direct binding of radiolabeled DCIT to PSMA-positive LnCap cells; parameters: species or system human; conditions: counts displaceable by nonradiolabeled compound or PMPA
Protocol: (§1) The histograms show the mean f SEM, each experiment was performed in duplicate.
(§2) In vitro cold screening assays verses I-131 DCIT. LNCaP and PC3 human prostate cancer cells were obtained from American Type Culture Collection, Rockville, MD LNCaP cells were maintained in RPMI-1640 medium supplemented with 10% fetal bovine serum (FBS). PC3 cells were grown in F12K medium supplemented with 10% FBS. Binding of the radiolabeled compound and competition with cold derivatives to LNCaP and PC-3 cells was performed according to the methods of Tang et al. (Tang, H.; Brown, M.; Ye, Y.; Huang, G.; Zhang, Y.; Wang, Y.; Zhai, H.; Chen, X.; Shen, T. Y.; Tenniswood, M., Prostate targeting ligands based on N-acetylated alpha-linked acidic dipeptidase, Biochem. Biophys. Res. Commun. 2003, 307, 8-14) with appropriate modifications. […] Total binding was determined by incubating I-131 DCIT without test compound. […] Cell binding of I-131 DCIT was determined by counting the cell pellet in an automated gamma counter. […]
(§3) (ii) In vitro dose screening. […] Binding constants were determined by incubating LnCap cells with various amounts of nonradiolabeled DCIT in the presence of a constant amount of I-131 DCIT and dividing by the specific activity of each solution to determine the number of fmoles compound bound (FIG. 6).

PC3 cells = experiment: Direct binding of radiolabeled DCIT to PSMA-negative PC3 cells; parameters: species or system human
Protocol: as §1, §2, §3

[1] = Stability of iodine-131 labeled compounds in solution (HPLC); type: physicochemical
Protocol: FIG. 4A-4D are radio-HPLC chromatograms of I-131 MIP 1072 purified; at 3 days in A) DMSO. B) 3% genstisate-6% Ascorbate/Ascorbic acid, C) PBS, pH=7.2, D) 10% Ethanol in Saline at 37° C.
(§4) The stability of the radiolabeled compound in solution was determined as a function of time. Specifically, after radiolabeling and isolation, the product was stored at room temperature for 48 h after which HPLC analysis was performed to check for degree of label retention, as well as potential product degradation. The reformation of NaI and the presence of the reduced iodates was analyzed.
as §4, with “37° C.” for “room temperature”, “3 days” for “48 h”

PSMA on LNCaP cells = biological target: T1, PSMA on LNCaP cells (Homo sapiens, UniProt Q04609); experiment: In vitro cell binding: competition with I-131 DCIT for binding to PSMA on LNCaP cells; conditions: for IC50: LNCaP cells, 3 nM I-131 DCIT, 1 hour, read-out: IC50 (nM), in vitro cell binding data; for pIC50: LnCap cells, dose curves
T1 construct: LNCaP human prostate cancer cells were obtained from American Type Culture Collection; host or cells: LNCaP human prostate cancer cells
T1 sequence (Q04609 whole entry): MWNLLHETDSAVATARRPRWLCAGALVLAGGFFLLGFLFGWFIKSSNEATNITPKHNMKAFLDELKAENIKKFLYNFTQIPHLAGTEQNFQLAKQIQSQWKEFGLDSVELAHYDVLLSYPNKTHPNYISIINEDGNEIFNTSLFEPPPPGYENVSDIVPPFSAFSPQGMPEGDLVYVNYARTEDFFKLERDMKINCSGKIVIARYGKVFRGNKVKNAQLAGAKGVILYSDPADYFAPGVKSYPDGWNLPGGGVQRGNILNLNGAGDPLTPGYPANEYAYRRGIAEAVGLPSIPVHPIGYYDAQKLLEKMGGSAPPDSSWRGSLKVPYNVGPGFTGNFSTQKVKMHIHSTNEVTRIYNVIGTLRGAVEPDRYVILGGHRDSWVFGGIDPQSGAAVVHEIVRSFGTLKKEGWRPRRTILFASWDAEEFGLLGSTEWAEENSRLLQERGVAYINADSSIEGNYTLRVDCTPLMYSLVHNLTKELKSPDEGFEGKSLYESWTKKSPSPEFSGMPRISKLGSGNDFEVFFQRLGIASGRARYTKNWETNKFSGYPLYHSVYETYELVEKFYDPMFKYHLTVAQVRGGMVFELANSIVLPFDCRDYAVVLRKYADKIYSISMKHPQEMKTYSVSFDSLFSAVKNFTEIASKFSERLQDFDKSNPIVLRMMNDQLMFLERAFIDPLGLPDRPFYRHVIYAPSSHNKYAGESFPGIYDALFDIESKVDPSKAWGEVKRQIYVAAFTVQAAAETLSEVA
Protocol: In vitro cold screening assays verses I-131 DCIT. LNCaP and PC3 human prostate cancer cells were obtained from American Type Culture Collection, Rockville, MD LNCaP cells were maintained in RPMI-1640 medium supplemented with 10% fetal bovine serum (FBS). PC3 cells were grown in F12K medium supplemented with 10% FBS. Binding of the radiolabeled compound and competition with cold derivatives to LNCaP and PC-3 cells was performed according to the methods of Tang et al. (Tang, H.; Brown, M.; Ye, Y.; Huang, G.; Zhang, Y.; Wang, Y.; Zhai, H.; Chen, X.; Shen, T. Y.; Tenniswood, M., Prostate targeting ligands based on N-acetylated alpha-linked acidic dipeptidase, Biochem. Biophys. Res. Commun. 2003, 307, 8-14) with appropriate modifications. Cells were plated in 12-well plates at approximately 4×10^5 cells/well and incubated for 48 hours in a humidified incubator at 37° C./5% carbon dioxide prior to addition of compound. Each unique SAAC-urea-Glu conjugate was prepared and diluted in serum-free cell culture medium containing 0.5% bovine serum albumin (BSA) in combination with 3 nM I-131 DCIT (known inhibitor). Total binding was determined by incubating I-131 DCIT without test compound. Plates were incubated at room temperature for 1 hour. Cells were removed from the plates by gently pipeting and transferred to eppendorff tubes. Samples were microcentrifuged for 15 seconds at 10K×g. The medium was aspirated and the pellet was washed twice by dispersal in fresh assay medium followed by microcentrifugation. Cell binding of I-131 DCIT was determined by counting the cell pellet in an automated gamma counter. […] The control compounds are depicted below.
The ability of non-radioactive analogs to compete with ^131I-DCIT for binding to PSMA was tested in the PSMA positive human prostate cancer cell line, LNCaP cells. LNCaP cells (300,000 cells/well) were incubated for 1 hour with 3 nM [^131I]-DCIT in the presence of 1-10,000 nM MIP-1072 in RPMI-1640 medium supplemented with 0.5% bovine serum albumin, then washed and counted in a gamma counter. All documents cited in this specification including patent applications are incorporated by reference in their entirety.

PSMA (LnCap cells) = PSMA (LnCap cells) (Homo sapiens, UniProt Q04609); experiment: Scatchard analysis in PSMA cellular binding assay (nonradiolabeled DCIT with I-131 DCIT)
PSMA (LnCap cells), sequence (Q04609 whole entry): as above
Protocol: FIG. 6 is Scatchard Analysis in PSMA Cellular Binding Assay with cold 2-{3-[1-Carboxy-2-(4-hydroxy-phenyl)-ethyl]-ureido}-pentanedioic acid (DCT).
as §3

[2] = read-out: IC50 values versus I-131 DCIT
[3] = read-out: IC-50 versus I-131 DCIT

Compound: O=C(O)CC[C@H](NC(=O)N[C@@H](Cc1ccc(O)c(I)c1)C(=O)O)C(=O)O [I-131 DCIT, N—[N—[(S)-1,3-dicarboxypropyl]carbamoyl]-S-3-iodo-L-tyrosine]
specific binding to LnCap cells (LnCap cells): bound specifically | specific binding to PC3 cells (PC3 cells): not PC3 cells | labeling stability (degradation) ([1]; out to 2 days at room temperature): no significant degradation

Compound: [Re(CO)3{(19R,23S)-13,21-dioxo-2-([…]yridine-2-ylmethyl)-2,14,20,22-tetraazapentacosane-1,19,23,25-tetracarboxylic acid}] [MIP-1109]
IC50 (PSMA on LNCaP cells): 696 nM

Compound: O=C(O)CC[C@H](NC(=O)N(Cc1ccccn1)Cc1ccccn1)C(=O)O [MIP 1025, (S)-2-(3,3-Bis-pyridin-2-ylmethyl-ureido)-pentanedioic acid]
competition with I-131 DCIT for binding to LnCap cells (PSMA on LNCaP cells; screen at 2 uM test compound): did not compete

Compound: O=C(O)CC[C@H](NC(=O)N[C@@H](CCCCNC(=O)Nc1ccc(I)cc1)C(=O)O)C(=O)O [MIP 1095, 2-(3-{1-Carboxy-5-[3-(4-iodo-phenyl)-ureido]-pentyl}-ureido)-pentanedioic acid]
IC50 (PSMA on LNCaP cells): 10 nM | pIC50 (PSMA on LNCaP cells; [2]): > 7.30

Compound: O=C(O)CC[C@H](NC(=O)N[C@@H](CCN(Cc1ccccn1)Cc1ccccn1)C(=O)O)C(=O)O [MIP 1028, (S, S)-2-{3-[3-(Bis-pyridin-2-ylmethyl-amino)-1-carboxy-propyl]-ureido}-pentanedioic acid]
competition with I-131 DCIT for binding to LnCap cells (PSMA on LNCaP cells; screen at 2 uM test compound): did not compete

Compound: NCCCC[C@H](NC(=O)N[C@@H](CCC(=O)O)C(=O)O)C(=O)O [MIP 1033, (S, S)-2-[3-(5-Amino-1-carboxy-pentyl)-ureido]-pentanedioic acid]
IC50 (PSMA on LNCaP cells): 498 nM | pIC50 (PSMA on LNCaP cells; [3]): 6.30 | competition with I-131 DCIT for binding to LnCap cells (PSMA on LNCaP cells; screen at 2 uM test compound): competed

Compound: [Re(CO)3(2-{3-[5-(Bis-pyridin-2-ylmethyl-amino)-1-carboxy-pentyl]-ureido}-pentanedioic acid)][Br] [MIP 1029]
competition with I-131 DCIT for binding to LnCap cells (PSMA on LNCaP cells): did not compete

Compound: O=C(O)CC[C@H](NC(=O)N[C@@H](Cc1ccc(O)c(I)c1)C(=O)O)C(=O)O [DCIT, N—[N—[(S)-1,3-dicarboxypropyl]carbamoyl]-S-3-iodo-L-tyrosine]
Bmax (PSMA (LnCap cells)): 254 fmol | pKd (PSMA (LnCap cells)): 6.58

Compound: O=C(O)CC[C@H](NC(=O)N[C@@H](CCCCN(Cc1ccccn1)Cc1ccccn1)C(=O)O)C(=O)O [MIP 1008, (S, S)-2-{3-[5-(Bis-pyridin-2-ylmethyl-amino)-1-carboxy-pentyl]-ureido}-pentanedioic acid]
pIC50 (PSMA on LNCaP cells; [3]): 7.01 | competition with I-131 DCIT for binding to LnCap cells (PSMA on LNCaP cells; screen at 2 uM test compound): competed

Compound: O=C(O)CC[C@H](NC(=O)N[C@@H](Cc1ccc(O)c([123I])c1)C(=O)O)C(=O)O [I-123 DCIT]
specific binding to LnCap cells (LnCap cells): bound specifically | specific binding to PC3 cells (PC3 cells): not PC3 cells

Compound: O=C(O)CC[C@H](NC(=O)N[C@@H](CCCCNCc1ccc([131I])cc1)C(=O)O)C(=O)O [I-131 1072]
stability by radio-HPLC ([1]; 3 days at 37° C. in DMSO, gentisate/ascorbate, PBS pH 7.2, 10% ethanol in saline): remained stable | labeling stability (degradation) ([1]; out to 3 days at room temperature in DMSO, 10% ethanol/saline, PBS pH 7.2, 6% ascorbate/3% gentisic acid): no significant degradation

Second part, the compound after the results:

IC50 (PSMA on LNCaP cells): 154 nM
Compound: O=C(O)CC[C@H](NC(=O)N[C@@H](CCCCNCc1cccc2ccccc12)C(=O)O)C(=O)O [MIP-1108, (S)-2-(3-((R)-1-carboxy-5-([…]yridine[…]ne-1-ylmethylamino)pentyl)ureido)pentanedioic acid]

IC50 (PSMA on LNCaP cells): 10 nM
Compound: O=C(O)CC[C@H](NC(=O)N[C@@H](CCCCNC(=O)NCc1cccc(I)c1)C(=O)O)C(=O)O [MIP-1101, 2-(3-{1-Carboxy-5-[3-(3-iodo-benzyl)-ureido]-pentyl}-ureido)-pentanedioic acid]

IC50 (PSMA on LNCaP cells): 1750 nM
Compound: [Re(CO)3{(35R,39S)-29,37-dioxo-1-([…]yridine-2-yl)-2-([…]yridine-2-ylmethyl)-5,8,11,14,17,20,23,26-octaoxa-2,30,36,38-tetraazahentetracontane-35,39,41-tricarboxylic acid}][Br] [MIP-1132]

pIC50 (PSMA on LNCaP cells; [2]): > 7.30
Compound: O=C(O)CC[C@H](NC(=O)N[C@@H](CCCCNS(=O)(=O)c1ccc(I)cc1)C(=O)O)C(=O)O [MIP 1097, 2-{3-[1-carboxy-5-(4-iodo-benzenesulfonylamino)-pentyl]-ureido}-pentanedioic acid]

IC50 (PSMA on LNCaP cells): 2 nM
Compound: O=C(O)CC[C@H](NC(=O)N[C@@H](CCCCNCc1ccc(Cl)cc1)C(=O)O)C(=O)O [MIP 1135, (S, S)-2-{3-[1-Carboxy-5-(4-chloro-benzylamino)-pentyl]-ureido}-pentanedioic]

IC50 (PSMA on LNCaP cells): 12 nM
Compound: O=C(O)CC[C@H](NC(=O)N[C@@H](CCCCNC(=O)Nc1ccccc1)C(=O)O)C(=O)O (stereo in doubt) [MIP 1111, 2-(3-{1-Carboxy-5-[3-(phenyl)-ureido]-pentyl}-ureido)-pentanedioic acid]

IC50 (PSMA on LNCaP cells): 245 nM
Compound: O=C(O)CC[C@H](NC(=O)N[C@@H](CCCCNCc1ccccc1Cl)C(=O)O)C(=O)O [MIP-1137, (S, S)-2-{3-[1-Carboxy-5-(2-chloro-benzylamino)-pentyl]-ureido}-pentanedioic]

IC50 (PSMA on LNCaP cells): 300 nM
Compound: O=C(O)CC[C@H](NC(=O)N[C@@H](CCCCNC(=O)CCCCCCCCCCN(Cc1ccc(I)cc1)Cc1ccc(I)cc1)C(=O)O)C(=O)O [MIP-1130, (19S,23S)-2-(4-iodobenzyl)-1-(4-iodophenyl)-13,21-dioxo-2,14,20,22-tetraazapentacosane-19,23,25-tricarboxylic acid]

IC50 (PSMA on LNCaP cells): 227 nM
Compound: [Re(CO)3{(17R,21S)-11,19-dioxo-1-([…]yridine-2-yl)-2-([…]yridine-2-ylmethyl)-5,8-dioxa-2,12,18,20-tetraazatricosane-17,21,23-tricarboxylic acid}][Br] [MIP-1133]

IC50 (PSMA on LNCaP cells): 4 nM
Compound: O=C(O)CC[C@H](NC(=O)N[C@@H](CCCCNC(=O)Nc1ccc(Cl)cc1)C(=O)O)C(=O)O [MIP 1110, 2-(3-{1-Carboxy-5-[3-(4-chloro-phenyl)-ureido]-pentyl}-ureido)-pentanedioic acid]

IC50 (PSMA on LNCaP cells): 277 nM
Compound: O=C(O)CC[C@H](NC(=O)N[C@@H](CCCCNCc1cccc(Cl)c1)C(=O)O)C(=O)O [MIP 1131, (S, S)-2-{3-[1-Carboxy-5-(3-chloro-benzylamino)-pentyl]-ureido}-pentanedioic]

IC50 (PSMA on LNCaP cells): 2960 nM
Compound: O=C(O)CC[C@H](NC(=O)NC(CCCCNCc1ccccc1)C(=O)O)C(=O)O (stereo in doubt) [MIP-1106, (S)-2-(3-((R)-5-(benzylamino)-1-carboxypentyl)ureido)pentanedioic acid]
